Test results: patent US20250099431A1, “GLP-1R MODULATING COMPOUNDS” (priority 2020, published 2025)
Like-named read-outs stand apart in the source and are kept apart here.

Tests used:
[1] = Microsomal stability (liver microsomal assay, mixed cofactors); predicted hepatic clearance; format: in vitro ADME; conditions: liver microsomes 1.0 mg protein/mL (+UDPGA +NADPH), 1 μM analyte, 37° C.; scaled with human liver weight and hepatic blood flow 1.3 L/hr/kg
Outline: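 Compound at 1 μM with human or rat pooled liver microsomes, alamethicin-treated, pH 7.4 phosphate, NADPH-regenerating plus UDPGA cofactors, 37° C, sampled 0–70 min. Parent/internal standard ratio by RapidFire QToF MS; half-life from initial log-linear decay, scaled to intrinsic and predicted hepatic clearance and hepatic extraction.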

GLP-1R = GLP-1R (Homo sapiens (Human), UniProt P43220); assay: GLP-1R activation: cAMP increase in CHO cells stably expressing GLP-1R; format: cell-based; conditions: 10 point dose response, 30 minutes incubation at 37° C.
Chain of GLP-1R (P43220 24-463): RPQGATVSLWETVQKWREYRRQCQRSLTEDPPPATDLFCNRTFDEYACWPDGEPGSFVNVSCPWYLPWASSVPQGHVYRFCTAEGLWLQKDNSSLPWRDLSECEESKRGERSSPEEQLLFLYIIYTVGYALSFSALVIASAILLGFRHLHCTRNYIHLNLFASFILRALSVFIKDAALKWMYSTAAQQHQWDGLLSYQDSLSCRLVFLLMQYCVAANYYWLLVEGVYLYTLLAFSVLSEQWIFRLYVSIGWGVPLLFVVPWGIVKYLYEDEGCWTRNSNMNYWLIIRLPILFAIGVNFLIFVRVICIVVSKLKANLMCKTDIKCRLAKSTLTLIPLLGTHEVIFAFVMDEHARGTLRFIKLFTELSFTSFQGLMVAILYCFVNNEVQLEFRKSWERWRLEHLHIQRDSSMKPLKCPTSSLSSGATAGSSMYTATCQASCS
Outline: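 CHO cells stably expressing GLP-1R were incubated 1 h at 37 °C in medium with 1% BSA, then exposed to compound in a 10-point dose response for 30 min at 37 °C. cAMP rise was detected by HTRF (Gs Dynamic kit). EC50 came from a sigmoidal fit of response against log agonist concentration.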

SMILES | Predicted Hepatic Clearance (Pred. Cl.) [1] [mL/min/kg] | EC50 (GLP-1R; cAMP increase, read-out: EC50) [nM] | EC50 (GLP-1R; EC50, cAMP increase) [nM]
CC1(c2ccc(Cl)cc2F)Oc2cccc(-c3cc(F)c(Cc4nc5ccc(C(=O)O)cc5n4C[C@@H]4CCO4)c(F)c3)c2O1 (single isomer, unassigned) [Example 48] | 2 | – | 1.2
COCCn1c(Cc2ccc(-c3cccc4c3OC(c3ccc(C#N)cc3F)O4)cc2F)nc2ccc(C(=O)O)cc21 (single isomer, unassigned) [Example 34] | 4.17 | 350 | –
COCCn1c(Cc2ccc(-c3cccc4c3OC(c3ccc(C#N)cc3F)O4)cc2F)nc2ccc(C(=O)O)cc21 (single isomer, unassigned) [Example 33, 2-(4-(2-(4-cyano-2-fluorophenyl)benzo [d][1,3]dioxol-4-yl)-2-fluorobenzyl)-1-(2-methoxyethyl)-1H-benzo[d]imidazole-6-carboxylic acid] | 2.67 | 53 | –
COCCn1c(Cc2ccc(-c3cccc4c3OC(c3ccccc3)O4)cc2F)nc2ccc(C(=O)O)cc21 (single isomer, unassigned) [Example 35, 2-(2-fluoro-4-(2-phenylbenzo[d][1, 3]dioxol-4-yl)benzyl)-1-(2-methoxyethyl)-1H-benzo[d]imidazole-6-carboxylic acid] | 2.83 | 646 | –
COCCn1c(Cc2ccc(-c3cccc4c3OC(c3ccccc3)O4)cc2F)nc2ccc(C(=O)O)cc21 (stereo not drawn) [Example 32, 2-(2-fluoro-4-(2-phenylbenzo[d][1, 3]dioxol-4-yl)benzyl)-1-(2-methoxyethyl)-1H-benzo[d]imidazole-6-carboxylic acid] | 6.33 | 1920 | –
COCCn1c(Cc2ccc(-c3cccc4c3OC(C)(c3ccc(Cl)cc3F)O4)nc2OC)nc2ccc(C(=O)O)cc21 (stereo not drawn) [Example 85, 2-((6-(2-(4-chloro-2-fluorophenyl)-2-methylbenzo[d][1, 3]dioxol-4-yl)-2-methoxypyridin-3-yl)methyl)-1-(2-methoxyethyl)-1H-benzo[d]imidazole-6-carboxylic acid] | 3 | 168 | –
COCCn1c(Cc2c(F)cc(-c3cccc4c3OC(C)(c3ccc(C(N)=O)cn3)O4)cc2F)nc2ccc(C(=O)O)cc21 (stereo not drawn) [Example 67, 2-(4-(2-(5-carbamoylpyridin-2-yl)-2-methylbenzo[d][1, 3]dioxol-4-yl)-2,6-difluorobenzyl)-1-(2-methoxyethyl)-1H-benzo[d]imidazole-6-carboxylic acid] | 7.17 | 20 | –
COCCn1c(Cc2c(F)cc(-c3c(F)ccc4c3OC(C)(c3ccc(Cl)cn3)O4)cc2F)nc2ccc(C(=O)O)cc21 (stereo not drawn) [Example 100, 2-(4-(2-(5-chloropyridin-2-yl)-5-fluoro-2-methylbenzo[d][1, 3]dioxol-4-yl)-2,6-difluorobenzyl)-1-(2-methoxyethyl)-1H-benzo[d]imidazole-6-carboxylic acid] | 10.3 | 14 | –
COCCn1c(Cc2ccc(-c3cccc4c3OC(C)(c3nc5ccccc5n3C)O4)cc2F)nc2ccc(C(=O)O)cc21 (stereo not drawn) [Example 52, 2-[[2-fluoro-4-[2-methyl-2-(1-methylbenzimidazol-2-yl)-1,3-benzodioxol-4-yl]phenyl]methyl]-3-(2-methoxyethyl) benzimidazole-5-carboxylic acid] | 17.8 | 2270 | –
COCCn1c(Cc2c(F)cc(-c3cccc4c3O[C@](C)(c3ccc(Cl)cc3F)O4)cc2F)nc2ccc(C(=O)O)cc21 [Example 103, 2-(4-(2-(4-chloro-2-fluorophenyl)-2-methylbenzo[d][1, 3]dioxol-4-yl)-2,6-difluorobenzyl)-1-(2-methoxyethyl)-1H-benzo[d]imidazole-6-carboxylic acid] | 4.17 | 8.2 | –

The next lines start with results.

Predicted Hepatic Clearance (Pred. Cl.) [1] [mL/min/kg] | EC50 (GLP-1R; cAMP increase, read-out: EC50) [nM] | SMILES | EC50 (GLP-1R; EC50, cAMP increase) [nM]
3.67 | 10000 | O=C(O)c1ccc2nc(Cc3c(F)cc(-c4cccc5c4C(=O)N(c4ccc(Cl)cc4F)C5)cc3F)n(C[C@@H]3CCO3)c2c1 [Example 72, (S)-2-(4-(2-(4-chloro-2-fluorophenyl)-3-oxoisoindolin-4-yl)-2,6-difluorobenzyl)-1-(oxetan-2-ylmethyl)-1H-benzo[d]imidazole-6-carboxylic acid] | –
3.83 | 1000 | COCCn1c(Cc2c(F)cc(-c3cccc4c3OC(c3ccc(C#N)cc3F)O4)cc2F)nc2ccc(C(=O)O)cc21 (single isomer, unassigned) [Example 37, 2-(4-(2-(4-cyano-2-fluorophenyl)benzo [d][1,3]dioxol-4-yl)-2,6-difluorobenzyl)-1-(2-methoxyethyl)-1H-benzo[d]imidazole-6-carboxylic acid] | –
4.83 | 0.033 | CC1(c2ccc(Cl)cc2F)Oc2cccc(-c3cc(F)c(Cc4nc5ccc(C(=O)O)cc5n4C[C@@H]4CCO4)cc3F)c2O1 (single isomer, unassigned) [Example 44] | –
3.17 | 16 | CC1(c2ccc(Cl)cn2)Oc2cccc(-c3cc(F)c(Cc4nc5ccc(C(=O)O)cc5n4C[C@@H]4CCO4)c(F)c3)c2O1 (single isomer, unassigned) [Example 50] | –
2 | 78 | COCCn1c(Cc2c(F)cc(-c3cccc4c3OC(C)(c3ccc(Cl)cc3F)O4)cc2F)nc2ccc(C(=O)NS(=O)(=O)C3CC3)cc21 (racemic) [Example 3, 2-(4-(2-(4-chloro-2-fluorophenyl)-2-methylbenzo[d][1, 3]dioxol-4-yl)-2,6-difluorobenzyl)-N-(cyclopropylsulfonyl)-1-(2-methoxyethyl)-1H-benzo[d]imidazole-6-carboxamide] | –
2.67 | 1.7 | CC1(c2ccc(Cl)cn2)Oc2cccc(-c3cc(F)c(Cc4nc5ccc(C(=O)O)cc5n4CC4(CC#N)CC4)c(F)c3)c2O1 (stereo not drawn) [Example 24, 2-(4-(2-(5-chloropyridin-2-yl)-2-methylbenzo[d][1, 3]dioxol-4-yl)-2,6-difluorobenzyl)-1-((1-(cyanomethyl)cyclo-propyl)methyl)-1H-benzo[d]imidazole 6-carboxylic acid] | –
2.33 | 0.53 | CC1(c2ccc(Cl)cn2)Oc2cccc(-c3cc(F)c(Cc4nc5ccc(C(=O)O)cc5n4C[C@@H]4CCO4)c(F)c3)c2O1 (stereo partly drawn) [Example 27, 2-(4-(2-(5-chloropyridin-2-yl)-2-methylbenzo[d][1, 3]dioxol-4-yl)-2,6-difluorobenzyl)-1-(((S)-oxetan-2-yl)methyl)-1H-benzo[d]imidazole-6-carboxylic acid] | –
1.83 | 2.6 | CC1(c2ccc(Cl)cc2F)Oc2cccc(-c3cc(F)c(Cc4nc5c(F)cc(C(=O)O)cc5n4CC4(CC#N)CC4)c(F)c3)c2O1 (single isomer, unassigned) [Example 105, 2-(4-(2-(4-chloro-2-fluorophenyl)-2-methylbenzo[d][1, 3]dioxol-4-yl)-2,6-difluorobenzyl)-1-((1-(cyanomethyl)cyclopropyl)methyl)-4-fluoro-1H-benzo[d]imidazole-6-carboxylic acid] | –
3.33 | 0.31 | CC1(c2ccc(Cl)cn2)Oc2cccc(-c3cc(F)c(Cc4nc5ccc(C(=O)O)cc5n4C[C@@H]4CCO4)c(F)c3)c2O1 (single isomer, unassigned) [Example 49] | –
<1.83 | 0.51 | CC1(c2ccc(Cl)cc2F)Oc2cccc(-c3cc(F)c(Cc4nc5ccc(C(=O)O)cc5n4CC4(CC#N)CC4)c(F)c3)c2O1 (stereo not drawn) [Example 1, 2-(4-(2-(4-chloro-2-fluorophenyl)-2-methylbenzo[d][1, 3]dioxol-4-yl)-2,6-difluorobenzyl)-1-((1-(cyanomethyl)cyclo-propyl)methyl)-1H-benzo[d]imidazole-6-carboxylic acid] | –
2.83 | 21 | CC1(c2ccc(C#N)cc2F)Oc2cccc(-c3cc(F)c(Cc4nc5ccc(C(=O)O)cc5n4C[C@@H]4CCO4)c(F)c3F)c2O1 (single isomer, unassigned) [Example 95] | –
3.5 | 0.62 | CC1(c2ccc(C(F)(F)F)cc2)Oc2cccc(-c3cc(F)c(Cc4nc5ccc(C(=O)O)cc5n4C[C@@H]4CCO4)cc3F)c2O1 (stereo partly drawn) [Example 63, 2-(2,5-difluoro-4-(2-methyl-2-(4-(trifluoromethyl)phenyl)benzo[d][1, 3]dioxol-4-yl)benzyl)-1-(((S)-oxetan-2-yl)methyl)-1H-benzo[d]imidazole-6-carboxylic acid] | –
5.83 | 3750 | COCCn1c(Cc2c(F)cc(-c3cccc4c3OC3(CCCc5cc(Cl)ccc53)O4)cc2F)nc2ccc(C(=O)O)cc21 (stereo not drawn) [Example 56, 2-(4-(6′-chloro-3′,4′-dihydro-2′H-spiro[benzo[d][1,3]dioxole-2,1′-naphthalen]-4-yl)-2,6-difluorobenzyl)-1-(2-methoxyethyl)-1H-benzo[d]imidazole-6-carboxylic acid] | –
7.33 | 10000 | COCCn1c(Cc2c(F)cc(-c3cccc4c3OC3(c5ccc(Cl)cc5)CCC(=O)N43)cc2F)nc2ccc(C(=O)O)cc21 (stereo not drawn) [Example 17, 2-(4-(3a-(4-chlorophenyl)-1-oxo-1,2,3,3a-tetrahydrobenzo[d]pyrrolo[2,1-b]oxazol-5-yl)-2,6-difluorobenzyl)-1-(2-methoxyethyl)-1H-benzo[d]imidazole-6-carboxylic acid] | –
